Laboratory results: patent US10813929B2, “Treating cancer with ATR inhibitors” (VERTEX PHARMACEUTICALS INCORPORATED, priority 2011, dated 2020)

Columns and labels:
[1] = test system: PSN-1, Panc-1, MiaPaCa-2 pancreatic cancer cell lines; assay: Cell viability assay (Alamar Blue) with irradiation, tumour cells; type: cell-based; settings: VE-821 for 96 h with or without 4 Gy; viability after 8 days; FIG. 1 panel B
Experimental: (§1) PSN-1, Panc-1, MiaPaCa-2 pancreatic cancer cell lines and MRCS fibroblasts were treated with increasing concentrations of VE-821 for 96 h combined with or without 4 Gy radiation at 1 h after VE-821 addition. Cell viability was measured after 8 days and shown as normalized to DMSO-treated cells. MiaPaCa-2, PSN-1, Panc1 and MRCS cells (5×104) were plated in 96-well plates and after 4 h treated with increasing concentrations of VE-821 at 1 h before irradiation with a single dose of 6 Gy. Medium was replaced 96 h post-irradiation at which point viability was measured using the using the Alamar Blue assay (Resazurin substrate, SIGMA). Cells were allowed to proliferate and cell viability was again analyzed at day 8 for the different treatment conditions. Cell viability and surviving fraction were normalized to the untreated (control) group.

[2] = test system: DNA damage foci and RAD51 foci; assay: Nuclear foci analysis (γH2AX, 53BP1, RAD51); type: cell-based; settings: 1 μM VE-821, 6 Gy
Experimental: Cells were treated with 1 μM VE-821 at various time points in relation to 6 Gy irradiation, as indicated, and fixed at 24 h post-irradiation. Subsequently, cells were stained for (A) γH2AX and (B) 53BP1 foci and the percentage of cells with more than 7 and 5 foci per cell was quantitated, respectively. C, for analysing Rad51 foci formation, cells were fixed at 6 h post-irradiation and the percentage of cells with more than 9 foci per cell was quantitated. Representative images are shown on the right (n=3). *, P<0.05 Cells growing in 96-well plates were treated with 1 μM VE-821 drug 1 h prior to 6 Gy irradiation and fixed in 3% formaldehyde at multiple time points. Cells were subsequently pearmeabalised and blocked in PBS with 0.1% Triton 1% BSA (w/v). Cells were incubated with primary antibody overnight at 4° C. and after a PBS wash incubated with fluorescently labeled secondary antibody followed gy a PBS wash and nuclear staining with DAPI. Images were acquired and foci quantitated using an IN Cell Analyzer 1000 automated epifluorescence microscope and analysis software (GE Healthcare, Cahlfont St. Giles, UK)

[3] = test system: PSN-1, MiaPaCa-2 and PancM cells; assay: Clonogenic survival assay, pancreatic cancer cells; type: cell-based
Experimental: PSN-1 cells were plated as single cells, treated with 1 μM VE-821 at different time points in relation to 4 Gy irradiation and assessed for colony formation after 10 days. The survival fraction at 4 Gy for each of the treatment schedules was determined by taking into account the relevant plating efficiency of unirradiated cells. Cells were treated with 1 μM VE-821 4 h after plating and 1 h prior to irradiation. Drug was removed after 72 h and colony-forming ability was assessed after 10 to 21 days. (n=3). *, P<0.05; **, P<0.01 over DMSO-treated control. A) clonogenic survival curves of cells treated with 1 μM VE-821 and irradiation under hypoxic conditions. Plated cells were transferred to hypoxia (0.5% O2) and acclimatised for 6 h. VE-821 (1 μM) was then added at 1 h prior to irradiation and left for 72 h upon which the medium was replaced. Cells were transferred to normoxia at 1 h post-irradiation. B) clonogenic survival of cells after irradiation with 6 Gy and treatment with 1 μM VE-821 in oxic and hypoxic (0.5% O2) conditions, as described above and in FIG. 1 (n=3). *, P<0.05; **, P<0.01; ***, P<0.001 over DMSO-treated control. A) clonogenic survival of cells treated with gemcitabine and 1 μM VE-821. Cells were treated with increasing concentrations of gemcitabine for 24 h followed by 72 h treatment of 1 μM VE-821. Colony forming ability was assessed after 10 to 21 days. B) clonogenic survival of cells treated with gemcitabine in hypoxia. Plated cells were transferred to hypoxia (0.5% O2) and acclimatised for 6 h. Cells were then treated with increasing concentrations of gemcitabine for 24 h followed by 72 h treatment of 1 μM VE-821. Hypoxic cells were transferred to normoxia 1 h after VE-821 addition. C) clonogenic survival after treatment with 20 nM gemcitabine and VE-821 in oxic and hypoxic (0.5% O2) conditions, as described above. D) clonogenic survival of cells treated with gemcitabine and irradiation. PSN-1 and MiaPaCa-2 cells were treated with 5 nM or 10 nM gemcitabine, respectively, for 24 h, medium was then replaced and 1 μM VE-821 was added from 1 h prior to 72 h post 4 Gy irradiation. Colony forming ability was assessed after 10 to 21 days (n=3). *, P<0.05; **, P<0.01; ***, P<0.001 over DMSO-treated control. Logarithmically growing cells were plated in triplicate in 6-well tissue culture dishes under oxic (21% O2) or hypoxic conditions (0.5% O2) using an InVivo2 300 chamber (Ruskinn Technology, UK). […] Cells were incubated for 10-21 days until colonies were stained with 0.5% crystal violet and counted in a CellCount automated colony counter (Oxford Optronix). Clonogenic survival was calculated and data were fitted in the GraphPad Prism 4.0 (GraphPad Software, CA).

[4] = test system: MRCS fibroblasts; assay: Cell viability assay (Alamar Blue) with irradiation, normal cells; type: cell-based; settings: VE-821 for 96 h with or without 4 Gy; viability after 8 days; FIG. 1 panel B
Experimental: as §1

[5] = test system: PSN-1 pancreatic cancer xenograft; assay: PSN-1 pancreatic cancer xenograft model with ionizing radiation; type: in vivo; settings: PSN-1 xenograft; FIGS. 14 and 15

| SMILES | radiosensitisation of pancreatic tumour cells (cell viability) [1] | RAD51 foci formation ([2]; fixed 6 h post-irradiation, FIG. 5) | 53BP1 and γH2AX foci number ([2]; fixed 24 h post-irradiation, FIG. 5) | repair of DNA damage by homologous recombination ([2]; FIG. 5 panels A, B, C) | radiosensitisation under hypoxic conditions (clonogenic survival) ([3]; 1 μM VE-821, hypoxia 0.5% O2, FIG. 2 panels A-B) | sensitisation to gemcitabine (clonogenic survival) ([3]; 1 μM VE-821 for 72 h after 24 h gemcitabine, oxic and hypoxic (0.5% O2), FIG. 3 panels B-C) | potentiation of chemoradiation (clonogenic survival) ([3]; PSN-1 and MiaPaCa-2, 5 or 10 nM gemcitabine, 1 μM VE-821, 4 Gy, FIG. 3 panel D) | surviving fraction after irradiation ([3]; PSN-1 cells, 1 μM VE-821, 4 Gy, effect increased as drug incubation time after irradiation was extended, FIG. 1 panel C) | radiosensitisation of normal cells (cell viability) [4] | antitumor effects of ionizing radiation (tumor volume over time) [5] |
| --- | --- | --- | --- | --- | --- | --- | --- | --- | --- | --- |
| CS(=O)(=O)c1ccc(-c2cnc(N)c(C(=O)Nc3ccccc3)n2)cc1 [VE-821] | radiosensitises pancreatic tumour cells | reduces RAD51 foci formation | increases 53BP1 and γH2AX foci number | inhibits repair of DNA damage by homologous recombination | radiosensitises tumour PSN-1, MiaPaCa-2 and PancM cells under hypoxic conditions | sensitises normoxic and hypoxic cancer cells to gemcitabine | potentiates the effect of chemoradiation | a decrease in surviving fraction was observed | not normal cells |  |
| CNCc1ccc(-c2cc(-c3nc(-c4ccc(S(=O)(=O)C(C)C)cc4)cnc3N)on2)cc1 [VE-822] |  |  |  |  |  |  |  |  |  | enhances the antitumor effects of ionizing radiation |
